Measured values taken from US5652252A, “Benzocycloheptenes” (Merck Patent Gesellschaft Mit Beschrankter Haftung, priority 1992, dated 1997).
Where two headings read alike, the source gives them in different places.

System: Dukin-Hartley guinea pigs
Test: Bronchodilating activity in vivo (Konzett and Rossler), histamine bronchospasm
Design: species or system guinea pig
Details: Cavia porcellus, iv, effective dose for 50% inhibition, anaesthetized guinea pigs
Method: The bronchodilating activity was measured in vivo by the method of Konzett H. and Rossler R. (Arch. Exp. Pathol. Pharmak., 1940, 195, p. 71 to 74) and Duhault J. et al. (Arzneim. Forsch./Drug. res., 1987, 37, p. 1353 to 1362).
Measurement of the bronchodilating activity:
Dukin-Hartley guinea pigs (400-500 g) are prepared according to the methodology described by Konzett and Rossler. The animals are anaesthetized by an intraperitoneal injection of urethane (1.5 g/kg) and a tracheotomy is prepared for artificial respiration (45 cycles/min; respiratory volume 10 ml/kg).
The animal is connected to a respiratory pump, which is adjusted to deliver a volume of 1 ml per 100 g of body weight of the guinea pig. It is connected to a recorder via a pressure sensor.
A catheter is placed in the jugular for the I.V. injections.
An I.V. injection of gallamine and propanolol is carried out. After stabilizing the pulmonary pressure for 30 minutes, an I.V. injection of histamine is carried out every 10 minutes until reproducibility is achieved; at that point, the test product is injected 10 minutes after the last spasm.

[1] = 5 min, I.V. histamine tested 5 minutes after injection of the product, read-out: Bronchospam ED50 at 5 min
[2] = 0.25 h, I.V. histamine tested 15 minutes after injection of the product, read-out: Bronchospam ED50 at 15 min

With CC1(C)C=C(c2cccc[n+]2[O-])c2cc(C#N)ccc2CC1 [Compound 109, 8-Cyano-3,3-dimethyl-1-(2-pyridyl N-oxide)-4,5-dihydro-3H-benzo [f]cycloheptane] the ED50 [1] was 0.086 mg/kg and the ED50 [2] was 0.331 mg/kg.

With CC1(C)C=C(c2cccc[n+]2[O-])c2cc(F)c(F)cc2OC1 [Compound 114, 7,8-Difluoro-3,3-dimethyl-5-(2-pyridyl N-oxide) -2,3-dihydro-1-benzoxepine] the ED50 [1] was 0.04 mg/kg and the ED50 [2] was 0.3 mg/kg.

For Cc1cc2c(cc1C#N)C(c1cccc[n+]1[O-])=CC(C)(C)CO2 [Compound 118, 7-Cyano-3,3,8-trimethyl-5-(2-pyridyl N-oxide)-2,3-dihydro-1-benzoxepine], the ED50 [1] was 0.15 mg/kg and the ED50 [2] was 0.2 mg/kg.

Work on CC1(C)C=C(c2cccc[n+]2[O-])c2cc(Cl)c(Cl)cc2OC1 [Compound 111, 7,8-Dichloro-3,3-dimethyl-5-(2-pyridyl N-oxide)-2,3-dihydro-1-benzoxepine] yielded an ED50 [1] of 0.049 mg/kg and an ED50 [2] of 0.1 mg/kg.

For CC1(C)C=C(c2cccc[n+]2[O-])c2cc(C#N)ccc2OC1 [Compound 104, 7-Cyano-3,3-dimethyl-5-(2-pyridyl N-oxide)-2,3-dihydro-1-benzoxepine], the ED50 [1] was 0.038 mg/kg and the ED50 [2] was 0.21 mg/kg.

With CC1(C)C=C(c2cccc[n+]2[O-])c2cc(C(F)(F)F)ccc2OC1 [Compound 100, 3,3-Dimethyl-5-(2-pyridyl N-oxide)-7-trifluoromethyl-2,3-dihydro-1-benzoxepine] the ED50 [1] was 0.069 mg/kg and the ED50 [2] was 0.101 mg/kg.

For Cc1cc2c(cc1C#N)OCC(C)(C)C=C2c1cccc[n+]1[O-] [Compound 119], the ED50 [1] was 0.31 mg/kg and the ED50 [2] was 0.53 mg/kg.

Work on CC1(C)C=C(c2cccc[n+]2[O-])c2cc(Cl)ccc2OC1 [Compound 91, 7-Chloro-3,3-methyl-(2-pyridyl N-oxide)-2,3-dihydro-1-benzoxepine] yielded an ED50 [1] of 0.1 mg/kg.
